Test results: paper PMC10096453, “One-Pot Synthesis and Evaluation of Antioxidative Stress and Anticancer Properties of an Active Chromone Derivative” (Molecules, 2023)
Read-outs that look alike come from different tables or passages of the source.

How the values were obtained:
HeLa cell = assay: MTT anticancer activity assay, HeLa cells; assay type: cell-based; conditions: for Anticancer activity on cervical cancer cells / IC50: HeLa; for IC50 / viability at 100 µM: Homo sapiens
Procedure: HEK293, HACAT, and HeLa cells were grown in modified Eagles’ minimum essential medium (EMEM, Gibco) with 10% fetal bovine serum (FBS, Gibco), 1% of 100 U/mL streptomycin and 100 U/mL penicillin (Gibco). Cells were seeded in culture flasks and maintained in an incubator at 37 °C in a humidified atmosphere with 5% CO2. After reaching 80–90% of confluence, cells were detached by incubation with 0.25% trypsin-0.2% EDTA (Gibco) for 5 min and plated for experiments.
This study examined cell cultures of HEK293, HACAT, and HeLa cells. The cytotoxicity of the test samples was carried out by the MTT (3-(4,5-dimethylthiazol-2-yl)-2,5-diphenyltetrazolium bromide) assay. The cells were seeded in 96-well microliter plates (2.0 × 10^4 cells/well). Stock solutions of the test compounds were prepared in DMSO. After 24 h, cells were treated with different concentrations of samples and diluted with media to obtain the final desired concentration. The treated cells were then incubated at 37 °C and 5% CO2 for 24 and 48 h. After incubation, the medium was replaced with 0.05% w/v of MTT solution in PBS and further incubated for 3 h. The solution was then discarded and DMSO was added to dissolve the formed formazan crystals. Each well’s absorbance (A) was measured at 570 nm using a microplate reader (FLUOstar Omega^TM, BMG Labtech, Ortenberg, Germany). All experiments were carried out in triplicate and repeated for at least three experiments.

[1] = ABTS radical cation scavenging assay; assay type: biochemical; conditions: for EC50: read-out: ABTS734nm EC50 ± SD
Text: (§1) Three in vitro antioxidant assays (DPPH, FRAP, and ABTS) were utilized to evaluate the antioxidant property of the synthesized compounds. The DPPH (α, α-diphenyl-β-picrylhydrazyl) assay is the well-known approach to determine antioxidant activity using a stable free radical DPPH, measure the absorbance change, and calculate the absorbance change in the percentage of scavenging activity. […] For example, the ferric-tripyridyltriazine (Fe^3+-TPTZ, colorless) complex is reduced to ferrous tripyridyltriazine (Fe^2+-TPTZ) at low pH and introduces a blue color with maximum absorption at 593 nm. The change in absorbance is related to antioxidant activity. However, a significant limitation of these in vitro tests is the non-physiological measurement conditions (no enzymatic condition and no transition metal ion chelating activity); therefore, the results obtained may not reflect the antioxidant activity of the source material under the biological conditions that exist in humans and animals. The ABTS assay involves a more drastic radical that is chemically produced. The use of ABTS for antioxidant activity determination of hydrophilic and lipophilic pure compounds has attracted interest due to its solubility in organic and aqueous media and stability in a wide pH range [31].
The ABTS assay was prepared by reaction of 5 mL of a 7 mM aqueous ABTS (2,2′-azino-bis (3-ethylbenzthiazoline-6-sulphonic acid) solution and 2.45 mM potassium persulfate solution (K2S2O8). After preparation and storage in the dark for 16 h, the radical cation solution was further diluted in ethanol to absorb about 0.7 at 734 nm. Trolox and test sample solutions were prepared in stock solution with DMSO and diluted with ethanol. A solution of 100 μL of the sample was mixed with 100 μL of the ABTS reagent in a 96-well plate. The mixture was shaken in a dark place for 10 min and incubated at 37 °C for 20 min, and the absorbance was determined at 734 nm. Absorbance determinations were recorded immediately and not more than 1 h after adding the reagent. The solution without the sample was used as a blank. All the determinations were made in triplicate. The sample’s scavenging percentage was calculated from this equation: scavenging percentage = (Absorbance control − Absorbance sample) × 100/Absorbance control. EC50 values were calculated from the relationship curve of %scavenging versus sample concentration.

[2] = FRAP (ferric reducing antioxidant power) assay; assay type: biochemical; conditions: Trolox equivalent
Text: as §1
The FRAP assay is a method for assessing antioxidant power. Briefly, the FRAP reagent was prepared from acetate buffer pH 3.6, 10 mM TPTZ solution in 40 mM HCl and 20 mM FeCl3.6 H2O in relative proportions of 10:1:1, v/v, respectively. The FRAP reagent was freshly prepared daily. A solution of 5 μL of the sample (3–300 μM, approx.) was mixed with 180 μL of the FRAP reagent in a 96-well plate. The mixture was shaken in the dark for 10 min and incubated at 37 °C for 20 min, and the absorbance was determined at 593 nm. The solution without the sample was used as a blank. All determinations were made in triplicate. Trolox was used as a standard antioxidant and plot the calibration curve between absorbance and concentration. Quercetin was applied as the reference compound. The FRAP values were calculated by comparing the absorbance change in the test sample and represented in μM of Trolox equivalent per μM of sample.

[3] = DPPH radical scavenging assay; assay type: biochemical; set-up: DPPH517nm % SA ± SD: dose or concentration left out as unconfirmed; conditions: for DPPH517nm % SA ± SD: mean of three measurements; for EC50: read-out: DPPH517nm EC50 ± SD
Text: as §1
The DPPH method was followed and modified from a previous study. Trolox was used as a reference. The DPPH stock solution at a concentration of 0.625 mM was prepared in 50% ethanol and kept at 4 °C in the dark. On the day of the experiment, 0.208 mM fresh DPPH working solution was freshly prepared by further diluting with 50% ethanol. […] Each reaction was carried out in a 96-well plate, and 100 μL of test preparation and DPPH solution were added. The 96-well plate was then shaken well for 10 min and kept in the dark at room temperature for 20 min, and the absorbance was recorded at 515–517 nm. According to the method described, delocalization also results in a deep violet color and is quantified as a percentage of scavenging activity. % scavenging activity (SA) = 100 × (Asample − Ablank)/(Acontrol − Ablank)(1) where Acontrol and Asample are the absorbances of the test DPPH without and with a sample, respectively. Ablank is the absorbance of the solvent used. The EC50 values were calculated from the relationship curve of %SA versus sample concentration. The experiment was carried out at least in triplicate.

[4] = 24 h, read-out: % Viability ± SD (at 100 μM) HeLa 24 h
[5] = 48 h, read-out: % Viability ± SD (at 100 μM) HeLa 48 h

| Compound | Anticancer activity on cervical cancer cells (HeLa cell; 24 h) | IC50 (HeLa cell; 24 h) | viability at 100 µM (HeLa cell; [4]) | viability at 100 µM (HeLa cell; [5]) | ABTS734nm % Scavenging at 500 µM [1] | EC50 [1] | FRAP593nm Value ± SD (TE) [2] | DPPH517nm % SA ± SD [3] | EC50 [3] |
| --- | --- | --- | --- | --- | --- | --- | --- | --- | --- |
| O=C(c1ccccc1)c1c(-c2ccccc2)oc2c(O)c(O)ccc2c1=O [2f, 3-Benzoyl-7,8-dihydroxy-2-phenyl-4H-chromen-4-one] | contained anticancer activity | 191 ± 6.01 µM | 109.3 ± 0.92% | 29.2 ± 0.4% | 81.63 ± 1.80% | 10.2 ± 0.7 µM | 1.70 ± 0.138 µM Trolox/1 µM of Synthesized Compounds | 93.55 ± 3.20% | 34.1 ± 3.28 µM |
| O=C(Oc1ccc2c(=O)c(C(=O)c3ccccc3)c(-c3ccccc3)oc2c1O)c1ccccc1 [2j, 3-Benzoyl-8-hydroxy-4-oxo-2-phenyl-4H-chromen-7-yl benzoate] | contained anticancer activity | 101 ± 3.18 µM | 65.2 ± 1.42% | 30 ± 1.23% | >95% | 22.2 ± 0.39 µM | 0.34 ± 0.078 µM Trolox/1 µM of Synthesized Compounds | 92.88 ± 0.46% | 49.9 ± 11 µM |
| O=c1c(O)c(-c2ccc(O)c(O)c2)oc2cc(O)cc(O)c12 [Quercetin, quercetin, reference compound] | – | 192.4 ± 1.27 µM | 69.1 ± 1.93% | 19.2 ± 0.25% | 88.51 ± 0.80% | 11.4 ± 0.17 µM | 3.35 ± 0.231 µM Trolox/1 µM of Synthesized Compounds | 93.89 ± 2.04% | 18.3 ± 5.62 µM |
